Measurements reported in patent US8716297B2, “Chemical entities to be used for Wee1 inhibition for the treatment of cancer” (AbbVie Inc., priority 2011, dated 2014).

What follows are compounds tested against T1, GST-tagged-Wee1 kinase (Homo sapiens, UniProt P30291) (assay: Wee1 time-resolved fluorescence equilibrium binding assay (displacement of Oregon Green-labeled ATP-competitive probe)). Settings: TR-FRET probe displacement; 2 nM GST-Wee1, 300 nM probe, 1 hour incubation; read-out: Wee-1 binding (Ki nM).
T1 construct: purchased Carnabio 05-177
T1 sequence (P30291 whole entry): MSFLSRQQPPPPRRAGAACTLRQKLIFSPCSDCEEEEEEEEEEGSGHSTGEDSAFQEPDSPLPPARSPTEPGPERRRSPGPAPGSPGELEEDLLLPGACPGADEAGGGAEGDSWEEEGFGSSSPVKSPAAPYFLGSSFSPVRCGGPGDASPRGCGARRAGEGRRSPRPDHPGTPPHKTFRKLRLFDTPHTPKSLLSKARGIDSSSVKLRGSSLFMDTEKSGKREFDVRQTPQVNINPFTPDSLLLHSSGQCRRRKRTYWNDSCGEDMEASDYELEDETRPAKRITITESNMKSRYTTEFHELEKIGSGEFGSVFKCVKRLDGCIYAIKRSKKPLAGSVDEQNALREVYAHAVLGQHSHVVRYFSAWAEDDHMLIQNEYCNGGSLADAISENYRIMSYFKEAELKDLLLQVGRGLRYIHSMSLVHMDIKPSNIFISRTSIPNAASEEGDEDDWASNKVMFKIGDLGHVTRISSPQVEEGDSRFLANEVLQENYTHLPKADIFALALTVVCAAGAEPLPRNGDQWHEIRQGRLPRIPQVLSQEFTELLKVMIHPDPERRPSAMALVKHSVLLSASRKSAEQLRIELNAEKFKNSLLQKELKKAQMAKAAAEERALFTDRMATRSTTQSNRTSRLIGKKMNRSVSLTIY
Protocol: Wee1 kinase was assayed using a time-resolved fluorescence equilibrium binding assay monitoring displacement of a rapidly reversible Oregon Green-labeled ATP-competitive kinase probe (N-(2-(2-(2-(4-(4-(5-chloro-4-(2-(1-hydroxycyclobutyl)thiazol-5-yl)-1H-pyrrolo[2,3-b]pyridin-2-yl)phenyl)piperazin-1-yl)ethoxy)ethoxy)ethyl)-2′,7′-difluoro-3′,6′-dihydroxy-3-oxo-3H-spiro[isobenzofuran-1,9′-xanthene]-5-carboxamide) by competitive Wee1 inhibitors.
A Ki of 1.5 nM was found for `C=CCN1c2ccccc2-c2nc(Nc3ccc(N4CCNCC4)cc3)ncc2S1(=O)=O` [Example 25, 6-allyl-N-[4-(piperazin-1-yl)phenyl]-6H-pyrimido[5,4-c][2,1]benzothiazin-2-amine 5,5-dioxide] in this work. A Ki of 1450 nM was found for `C=CCN1c2ncccc2-c2nc(Nc3ccccc3)ncc2S1(=O)=O` [Example 32, 6-allyl-N-phenyl-6H-pyrido[2,3-c]pyrimido[4,5-e][1,2]thiazin-2-amine 5,5-dioxide] in this work. A Ki of 11 nM was found for `C=CCN1c2c(C(=O)NC)cccc2-c2nc(Nc3ccc(N4CCN(C)CC4)cc3)ncc2S1(=O)=O` [Example 61, 6-allyl-N-methyl-2-{[4-(4-methylpiperazin-1-yl)phenyl]amino}-6H-pyrimido[5,4-c][2,1]benzothiazine-7-carboxamide 5,5-dioxide] in this work. A Ki of 2370 nM was found for `C=CCN1c2ncccc2-c2nc(Nc3ccc(N4CCN(C)CC4)c(Cl)c3)ncc2S1(=O)=O` [Example 41, 6-allyl-N-[3-chloro-4-(4-methylpiperazin-1-yl)phenyl]-6H-pyrido[2,3-c]pyrimido[4,5-e][1,2]thiazin-2-amine 5,5-dioxide] in this work. A Ki of 11 nM was found for `CN1c2ccccc2-c2nc(Nc3ccc(CN4CCCC4)cc3)ncc2S1(=O)=O` [Example 58, 6-methyl-N-[4-(pyrrolidin-1-ylmethyl)phenyl]-6H-pyrimido[5,4-c][2,1]benzothiazin-2-amine 5,5-dioxide] in this work. A Ki of 2 nM was found for `C=CCN1c2ncccc2-c2nc(Nc3ccc(N4CCN5CCCC5C4)cc3)ncc2S1(=O)=O` (stereo not drawn) [Example 48, 6-allyl-N-[4-(hexahydropyrrolo[1,2-a]pyrazin-2(1H)-yl)phenyl]-6H-pyrido[2,3-c]pyrimido[4,5-e][1,2]thiazin-2-amine 5,5-dioxide] in this work. A Ki of 47 nM was found for `C=CCN1c2ccccc2-c2nc(Nc3ccc4c(c3)NC(=O)CO4)ncc2S1(=O)=O` [Example 6, 6-[(6-allyl-5,5-dioxido-6H-pyrimido[5,4-c][2,1]benzothiazin-2-yl)amino]-2H-1,4-benzoxazin-3(4H)-one] in this work. A Ki of 1.8 nM was found for `C=CCN1c2ccccc2-c2nc(Nc3ccc(N4CCN(C)CC4)cc3)ncc2S1(=O)=O` [Example 1, 6-allyl-N-[4-(4-methylpiperazin-1-yl)phenyl]-6H-pyrimido[5,4-c][2,1]benzothiazin-2-amine 5,5-dioxide] in this work. A Ki of 14 nM was found for `CCCN1c2cc(C(C)(C)O)ccc2-c2nc(Nc3ccc(N4CCN(C)CC4)cc3)ncc2S1(=O)=O` [Example 80, 2-(2-{[4-(4-methylpiperazin-1-yl)phenyl]amino}-5,5-dioxido-6-propyl-6H-pyrimido[5,4-c][2,1]benzothiazin-8-yl)propan-2-ol] in this work. A Ki of 2700 nM was found for `COC(=O)c1ccc2c(c1)N(c1cc(C(F)(F)F)cc(C(F)(F)F)c1)S(=O)(=O)c1cnc(Nc3ccc(N4CCN(C)CC4)cc3)nc1-2` [Example 91, methyl 6-[3,5-bis(trifluoromethyl)phenyl]-2-{[4-(4-methylpiperazin-1-yl)phenyl]amino}-6H-pyrimido[5,4-c][2,1]benzothiazine-8-carboxylate 5,5-dioxide] in this work. A Ki of 3 nM was found for `CCCN1c2ccc(-c3ccncc3)cc2-c2nc(Nc3ccc(N4CCN(C)CC4)cc3)ncc2S1(=O)=O` [Example 99, N-[4-(4-methylpiperazin-1-yl)phenyl]-6-propyl-9-(pyridin-4-yl)-6H-pyrimido[5,4-c][2,1]benzothiazin-2-amine 5,5-dioxide] in this work. A Ki of 4 nM was found for `CCCN1c2cc(-c3cccnc3)ccc2-c2nc(Nc3ccc(N4CCN(C)CC4)cc3)ncc2S1(=O)=O` [Example 69, N-[4-(4-methylpiperazin-1-yl)phenyl]-6-propyl-8-(pyridin-3-yl)-6H-pyrimido[5,4-c][2,1]benzothiazin-2-amine 5,5-dioxide] in this work. A Ki of 2 nM was found for `C=CCN1c2ncccc2-c2nc(Nc3ccc(N4CCNCC4)c(C)c3)ncc2S1(=O)=O` [Example 42, 6-allyl-N-[3-methyl-4-(piperazin-1-yl)phenyl]-6H-pyrido[2,3-c]pyrimido[4,5-e][1,2]thiazin-2-amine 5,5-dioxide] in this work. A Ki of 2 nM was found for `COC(=O)c1ccc2c(c1)N(c1ccccc1)S(=O)(=O)c1cnc(Nc3ccc(N4CCN(C)CC4)cc3)nc1-2` [Example 88, methyl 2-{[4-(4-methylpiperazin-1-yl)phenyl]amino}-6-phenyl-6H-pyrimido[5,4-c][2,1]benzothiazine-8-carboxylate 5,5-dioxide] in this work. A Ki of 57 nM was found for `CCCN1c2cc(-c3c[nH]c4ncccc34)ccc2-c2nc(Nc3ccc(N4CCN(C)CC4)cc3)ncc2S1(=O)=O` [Example 77, N-[4-(4-methylpiperazin-1-yl)phenyl]-6-propyl-8-(1H-pyrrolo[2,3-b]pyridin-3-yl)-6H-pyrimido[5,4-c][2,1]benzothiazin-2-amine 5,5-dioxide] in this work. A Ki of 51 nM was found for `C=CCN1c2ncccc2-c2nc(Nc3ccc4c(c3)NCCC4)ncc2S1(=O)=O` [Example 38, 6-allyl-N-(1,2,3,4-tetrahydroquinolin-7-yl)-6H-pyrido[2,3-c]pyrimido[4,5-e][1,2]thiazin-2-amine 5,5-dioxide] in this work. A Ki of 5 nM was found for `C=CCN1c2ncccc2-c2nc(Nc3ccc(N4CCN(C)CC4)c(C)c3)ncc2S1(=O)=O` [Example 50, 6-allyl-N-[3-methyl-4-(4-methylpiperazin-1-yl)phenyl]-6H-pyrido[2,3-c]pyrimido[4,5-e][1,2]thiazin-2-amine 5,5-dioxide] in this work. A Ki of 106 nM was found for `C=CCN1c2ccccc2-c2nc(Nc3ccc4c(c3)N(C)CCC4)ncc2S1(=O)=O` [Example 8, 6-allyl-N-(1-methyl-1,2,3,4-tetrahydroquinolin-7-yl)-6H-pyrimido[5,4-c][2,1]benzothiazin-2-amine 5,5-dioxide] in this work. A Ki of 110 nM was found for `C=CCN1c2ncccc2-c2nc(Nc3ccc(N4CCNCC4)cn3)ncc2S1(=O)=O` [Example 103, N-[5-(piperazin-1-yl)pyridin-2-yl]-6-(prop-2-en-1-yl)-6H-pyrido[2,3-c]pyrimido[4,5-e][1,2]thiazin-2-amine 5,5-dioxide] in this work. A Ki of 220 nM was found for `C=CCN1c2ccccc2-c2nc(Nc3ccccc3)ncc2S1(=O)=O` [Example 24, 6-allyl-N-phenyl-6H-pyrimido[5,4-c][2,1]benzothiazin-2-amine 5,5-dioxide] in this work. A Ki of 1.7 nM was found for `C/C=C/N1c2ccccc2-c2nc(Nc3ccc(N4CCN(C)CC4)cc3)ncc2S1(=O)=O` [Example 2, N-[4-(4-methylpiperazin-1-yl)phenyl]-6-[(1E)-prop-1-en-1-yl]-6H-pyrimido[5,4-c][2,1]benzothiazin-2-amine 5,5-dioxide] in this work. A Ki of 413 nM was found for `C=CCN1c2ccccc2-c2nc(N)ncc2S1(=O)=O` [Example 29, 6-allyl-6H-pyrimido[5,4-c][2,1]benzothiazin-2-amine 5,5-dioxide] in this work. A Ki of 9 nM was found for `CN1CCN(c2ccc(Nc3ncc4c(n3)-c3ccccc3N(C)S4(=O)=O)cc2)CC1` [Example 56, 6-methyl-N-[4-(4-methylpiperazin-1-yl)phenyl]-6H-pyrimido[5,4-c][2,1]benzothiazin-2-amine 5,5-dioxide] in this work. A Ki of 3 nM was found for `C=CCN1c2ncccc2-c2nc(Nc3ccc4c(c3)CNCC4)ncc2S1(=O)=O` [Example 33, 6-allyl-N-(1,2,3,4-tetrahydroisoquinolin-7-yl)-6H-pyrido[2,3-c]pyrimido[4,5-e][1,2]thiazin-2-amine 5,5-dioxide] in this work. A Ki of 9 nM was found for `C=CCN1c2c(C(=O)OC)cccc2-c2nc(Nc3ccc(N4CCN(C)CC4)cc3)ncc2S1(=O)=O` [Example 60, methyl 6-allyl-2-{[4-(4-methylpiperazin-1-yl)phenyl]amino}-6H-pyrimido[5,4-c][2,1]benzothiazine-7-carboxylate 5,5-dioxide] in this work. A Ki of 738 nM was found for `C=CCN1c2ccccc2-c2nc(Nc3ccccc3N3CCN(C)CC3)ncc2S1(=O)=O` [Example 12, 6-allyl-N-[2-(4-methylpiperazin-1-yl)phenyl]-6H-pyrimido[5,4-c][2,1]benzothiazin-2-amine 5,5-dioxide] in this work. A Ki of 45 nM was found for `CCCN1c2cc(-n3cccc3)ccc2-c2nc(Nc3ccc(N4CCN(C)CC4)cc3)ncc2S1(=O)=O` [Example 93, N-[4-(4-methylpiperazin-1-yl)phenyl]-6-propyl-8-(1H-pyrrol-1-yl)-6H-pyrimido[5,4-c][2,1]benzothiazin-2-amine 5,5-dioxide] in this work. A Ki of 5 nM was found for `CCCN1c2cc(C(=O)NCCOC)ccc2-c2nc(Nc3ccc(N4CCN(C)CC4)cc3)ncc2S1(=O)=O` [Example 85, N-(2-methoxyethyl)-2-{[4-(4-methylpiperazin-1-yl)phenyl]amino}-6-propyl-6H-pyrimido[5,4-c][2,1]benzothiazine-8-carboxamide 5,5-dioxide] in this work. A Ki of 4 nM was found for `C=CCN1c2ccccc2-c2nc(Nc3cccc(N4CCN(C)CC4)c3)ncc2S1(=O)=O` [Example 18, 6-allyl-N-[3-(4-methylpiperazin-1-yl)phenyl]-6H-pyrimido[5,4-c][2,1]benzothiazin-2-amine 5,5-dioxide] in this work. A Ki of 2 nM was found for `C=CCN1c2ncccc2-c2nc(Nc3ccc4c(c3)CCNC4)ncc2S1(=O)=O` [Example 46, 6-allyl-N-(1,2,3,4-tetrahydroisoquinolin-6-yl)-6H-pyrido[2,3-c]pyrimido[4,5-e][1,2]thiazin-2-amine 5,5-dioxide] in this work. A Ki of 15 nM was found for `C=CCN1c2ncccc2-c2nc(Nc3ccc(OCCN(CC)CC)cc3)ncc2S1(=O)=O` [Example 39, 6-allyl-N-{4-[2-(diethylamino)ethoxy]phenyl}-6H-pyrido[2,3-c]pyrimido[4,5-e][1,2]thiazin-2-amine 5,5-dioxide] in this work. A Ki of 1.3 nM was found for `C=CCN1c2ncccc2-c2nc(Nc3ccc4c(c3)CN(C)CC43CC3)ncc2S1(=O)=O` [Example 47, 6-allyl-N-(2′-methyl-2′,3′-dihydro-1′H-spiro[cyclopropane-1,4′-isoquinolin]-7′-yl)-6H-pyrido[2,3-c]pyrimido[4,5-e][1,2]thiazin-2-amine 5,5-dioxide] in this work. A Ki of 283 nM was found for `C=CCN1c2ccccc2-c2nc(Nc3ccc(-c4nc5ccccc5[nH]4)cc3)ncc2S1(=O)=O` [Example 20, 6-allyl-N-[4-(1H-benzimidazol-2-yl)phenyl]-6H-pyrimido[5,4-c][2,1]benzothiazin-2-amine 5,5-dioxide] in this work.
